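Briefly, cells in 96-well plates were exposed to five compound concentrations for 48 h, and endpoints were estimated by linear interpolation. TGI denotes the concentration required for complete inhibition of growth.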 Where a SMILES comes first, the peptide text is derived from it. The star is where a group is joined. Boc = CC(C)(C)OC(=O)*
Experiments:
Test in all cases: NCI tumour cell line growth inhibition, 48 h
RXF 393 renal = tested on: RXF 393 renal
UO-31 renal = tested on: UO-31 renal
OVCAR-4 ovarian = tested on: OVCAR-4 ovarian
PC-3 prostate = tested on: PC-3 prostate
KM12 colon = tested on: KM12 colon
SF-295 CNS = tested on: SF-295 CNS
UACC-62 melanoma = tested on: UACC-62 melanoma
HCT-116 colon = tested on: HCT-116 colon
OVCAR-3 ovarian = tested on: OVCAR-3 ovarian
MCF7 breast = tested on: MCF7 breast

| SMILES | TGI (RXF 393 renal) [µM] | TGI (UO-31 renal) [µM] | TGI (OVCAR-4 ovarian) [µM] | TGI (PC-3 prostate) [µM] | TGI (KM12 colon) [µM] | TGI (SF-295 CNS) [µM] | TGI (UACC-62 melanoma) [µM] | TGI (HCT-116 colon) [µM] | TGI (OVCAR-3 ovarian) [µM] | TGI (MCF7 breast) [µM] |
| --- | --- | --- | --- | --- | --- | --- | --- | --- | --- | --- |
| CCN(C(=S)N[C@@H](Cc1ccccc1)C(=O)N[C@@H](CC(C)C)C(=O)OC)c1ccccc1 | > 100 | > 100 | > 100 | > 100 | > 100 | > 100 | > 100 | > 100 | > 100 | > 100 |
| NNC(=O)c1ccc[n+](CCc2ccccc2)c1 | > 100 | > 100 | > 100 | > 100 | > 100 | > 100 | > 100 | > 100 | > 100 | > 100 |
| C=C[C@@H]1C(CO)=CCC2[C@H]1CCC1C(C)(C)C(=O)CC[C@]21C (stereo not given in full) | > 100 | > 100 | > 100 | > 100 | > 100 | > 100 | > 100 | > 100 | > 100 | > 100 |
| Cc1csc(-c2cn(C)c3c2C(=O)C(N)=CC3=O)n1 | > 100 | > 100 | > 100 | > 100 | > 100 | 20.8 | 26.3 | > 100 | > 67.3 | > 100 |
| C=CCO/N=C/c1cc(NC(=S)c2ccoc2C)ccc1Cl | 65.8 | 19.4 | 20.6 | 27.6 | 25.5 | 26.6 | 35.5 | > 100 | 24.3 | 23.3 |
| Cc1c(S(=O)(=O)/N=C(\N)Nc2ccc(Cl)cc2)sc2ccc(Cl)cc12 | > 100 | 35.9 | 68.8 | 28.2 | > 100 | 46.7 | 45.4 | 31.5 | 36.5 | 35.8 |
| COc1ccc(C(OCC2OC(n3cc(C)c(=O)[nH]c3=O)CC2n2cc(Cn3cc(F)c(=O)[nH]c3=O)nn2)(c2ccccc2)c2ccccc2)cc1 (stereo not given) | 49.6 | 23.6 | 47.3 | 31.3 | 14.3 | 19.4 | 29.2 | 13.2 | 19.6 | 34.7 |
| CN(C)C(=S)S | > 100 | > 100 | > 100 | > 100 | > 100 | > 100 | > 100 | > 59.9 | 28.3 | > 100 |
| COc1cc(C2SCC(=O)N2c2ccc(NC(=O)c3ccc(N4C(=O)CSC4c4cc(OC)c(OC)c(OC)c4)cc3)cc2)cc(OC)c1OC (stereo not given) | > 100 | > 100 | > 100 | > 100 | > 100 | > 100 | 76.6 | > 100 | > 100 | > 100 |
| O=C(NCCN1CCOCC1)c1ccc2cc(C(=O)N3CC(CCl)c4ccc([N+](=O)[O-])cc43)[nH]c2c1 (stereo not given) | 20.4 | > 100 | 32.6 | 48.8 | > 100 | 13.3 | 43.4 | > 100 | 33.1 | > 100 |
| CC(C)(C)OC(=O)NCC(=O)NCC(=O)NCC(=O)NCC(=O)O (Boc-GGGG-OH) | > 100 | > 100 | > 100 | > 100 | > 100 | > 100 | > 100 | > 100 | > 100 | > 100 |
| Cc1ccccc1C(O)(c1nccn1C)c1nccn1C | > 100 | > 100 | > 100 | > 100 | > 100 | > 100 | > 100 | > 100 | > 100 | > 100 |
| C1=CC2=CC=CC3c4nc5ccc6ccccc6c5nc4C(=C1)C23 (stereo not given) | > 100 | > 100 | > 100 | > 100 | > 100 | > 100 | > 100 | > 100 | > 100 | > 100 |
| C=CCOC(=O)CC[N+]1=CCC(c2ccccc2)(c2ccccc2)O1 | > 100 | > 100 | > 100 | > 100 | > 100 | > 100 | > 100 | > 100 | > 100 | > 100 |
| COc1ccc(C2(CC(C)O)SCCCS2)cc1 (stereo not given) | > 100 | > 100 | > 100 | > 100 | > 100 | > 100 | > 100 | > 100 | > 100 | > 100 |
| c1ccc2c(c1)NC(C1OC3CCCN3C1C1Nc3ccccc3S1)S2 (stereo not given) | 97 | > 100 | > 100 | > 100 | > 100 | > 100 | > 100 | > 100 | > 100 | > 100 |
| O=C1CN2C(c3ccccc3)=NN(c3ccc([N+](=O)[O-])cc3)C2(c2ccccc2)c2cc(Cl)ccc2N1CC1CC1 (stereo not given) | > 100 | > 100 | > 100 | > 100 | > 100 | > 100 | > 100 | > 100 | > 100 | > 100 |
